# System: calf thymus double stranded DNA and ribosomal RNA
# Assay: Determination of DNA/RNA fluorescence ratios
# Type: binding
# Settings: for DNA/RNA (fluorescence ratio): 65 ug/mL calf thymus dsDNA vs 65 ug/mL ribosomal RNA, 10 mM Tris, 1 mM EDTA pH 7.5, ratio of 1 = no selectivity; for ex/em: emission: emission value, second number of ex/em cell; for ex/em: excitation: excitation value, first number of ex/em cell
# Description: The tested compound was dissolved as a stock solution in DMSO at a concentration of about 0.1-1.0 mg/mL. The exact concentration is not critical. Three tubes are prepared, each containing the same 1-20 uL of stock solution. The first tube contained 10 mM Tris, 1 mM EDTA (pH 7.5) buffer; the second tube contained buffer and 65 ug/mL calf thymus double stranded DNA; and the third tube contained buffer and 65 ug/mL ribosomal RNA. The tubes were incubated at room temperature for 10-15 minutes with protection from light.
# In some cases, it was necessary to dilute the sample to keep the fluorescence signal on-scale. In these cases, all three samples were diluted to the same degree. The ratio of the fluorescence of the compound in the presence of DNA and RNA was determined.
# The following compounds were selected as representative of the inventive class of compounds. The fluorescence values in the presence of DNA and RNA were determined as described in the previous Example. […] A ratio of 1 would indicate no selectivity. Excitation and emission values are in nm
Compound,ex/em: emission [nm],ex/em: excitation [nm],DNA/RNA (fluorescence ratio)
CCCN(CCCN(C)C)C1=CC(=Cc2sc3cc(-c4c(OC)cccc4OC)ccc3[n+]2C)c2ccccc2N1Cc1ccccc1 [Compound 16],532,504,15.2
COc1cccc(OC)c1-c1ccc2c(c1)sc(C=C1C=C(N3CCNCC3)N(Cc3ccccc3)c3ccccc31)[n+]2C [Compound 21],534,510,5.4
CCN(CC)Cc1ccc(C2=CC(=Cc3sc4cc(-c5c(OC)cccc5OC)ccc4[n+]3C)c3ccccc3N2Cc2ccccc2)cc1 [Compound 25],559,518,9
CCCN(CCCN(C)C)C1=CC(=Cc2sc3cc(-c4c(OC)cccc4OC)ccc3[n+]2C)c2ccccc2N1c1ccccc1 [Compound 28],527,497,6.5
CCCN(CCCN(C)C)C1=CC(=Cc2sc3cc(-c4c(OC)cccc4OC)ccc3[n+]2C)c2ccccc2N1C [Compound 30],527,495,5.7
CCCN(CCC[N+](C)(C)C)C1=CC(=Cc2sc3cc(-c4c(OC)cccc4OC)ccc3[n+]2C)c2ccccc2N1Cc1ccccc1 [Compound 31],534,505,10.5
COC1=CC(=Cc2sc3cc(-c4c(OC)cccc4OC)ccc3[n+]2C)c2ccccc2N1Cc1ccccc1 [Compound 32],517,498,36
C#CCN1C(N(CCC)CCCN(C)C)=CC(=Cc2sc3cc(-c4c(OC)cccc4OC)ccc3[n+]2C)c2ccccc21 [Compound 34],532,503,5.8
CCCN(CCCN(C)C)C1=CC(=Cc2sc3cc(-c4c(OC)cccc4OC)ccc3[n+]2C)c2ccc(OC)cc2N1Cc1ccccc1 [Compound 38],522,497,13
CCCN(CCCN(C)C)C1=CC(=Cc2sc3cc(-c4c(OC)cccc4OC)ccc3[n+]2C)c2cc(OC)ccc2N1Cc1ccccc1 [Compound 39],536,507,6.1
COc1cccc(OC)c1-c1ccc2c(c1)sc(C=C1C=CN(Cc3ccc(C[N+](C)(C)CCCN(C)C)cc3)c3ccccc31)[n+]2C [Compound 46],542,512,11.5
COc1cccc(OC)c1-c1ccc2c(c1)sc(C=C1C=CN(Cc3ccc(CN(C)CCCN(C)C)cc3)c3ccccc31)[n+]2C [Compound 47],541,512,8.6
COc1cccc(OC)c1-c1ccc2c(c1)sc(C=C1C=CN(Cc3ccc(C[N+](C)(C)C)cc3)c3ccccc31)[n+]2C [Compound 48],540,513,7.3
COc1cccc(OC)c1-c1ccc2c(c1)sc(C=C1C=CN(Cc3cc[n+](C)cc3)c3ccccc31)[n+]2C [Compound 56],545,515,3.7
COc1cccc(OC)c1-c1ccc2c(c1)sc(C=C1C=CN(C)c3ccccc31)[n+]2C [Compound 65],536,506,11.3
Cc1cccc(C)c1-c1ccc2c(c1)sc(C=C1C=C(N(C)CCCN(C)C)N(Cc3ccccc3)c3ccccc31)[n+]2C [Compound 70],524,501,2.7
C[n+]1c(C=C2C=CN(Cc3ccccc3)c3ccccc32)oc2ccc(-c3ccccc3)cc21 [Compound 89],512,485,1.8
CCN(CC)Cc1ccc(C2=CC(=Cc3sc4cc(-c5ccccc5)ccc4[n+]3C)c3ccccc3N2c2ccccc2)cc1 [Compound 91],563,522,1.5
C[n+]1c(C=C2C=CN(Cc3ccccc3)c3ccccc32)sc2cc(-c3ccccc3)ccc21 [Compound 92],501,458,1
C[n+]1c(C=C2C=CN(Cc3ccccc3)C(c3ccccc3)=C2)sc2cc(-c3ccccc3)ccc21 [Compound 93],514,466,1.5
C[n+]1c(C=C2C=CN(Cc3ccccc3)c3ccccc32)sc2cc(-c3cc4ccccc4s3)ccc21 [Compound 95],591,550,1.9
C[n+]1c(C=C2C=CN(Cc3ccccc3)c3ccccc32)sc2cc(-c3cccnc3)ccc21 [Compound 97],538,513,3.7
C[n+]1c(C=C2C=CN(Cc3ccccc3)c3ccccc32)sc2cc(-c3ccc(O)cc3)ccc21 [Compound 100],551,513,8.1

# The next lines start with results.
ex/em: emission [nm],ex/em: excitation [nm],Compound,DNA/RNA (fluorescence ratio)
533,505,COc1cccc(OC)c1-c1ccc2c(c1)sc(C=C1C=C(N(C)CCN(C)C)N(Cc3ccccc3)c3ccccc31)[n+]2C [Compound 18],3.5
553,525,COc1cccc(OC)c1-c1ccc2c(c1)sc(C=C1C=C(n3ccnc3)N(Cc3ccccc3)c3ccccc31)[n+]2C [Compound 19],7.3
534,505,CNCCN(C)C1=CC(=Cc2sc3cc(-c4c(OC)cccc4OC)ccc3[n+]2C)c2ccccc2N1Cc1ccccc1 [Compound 22],4.7
529,500,CNCCCN(C)C1=CC(=Cc2sc3cc(-c4c(OC)cccc4OC)ccc3[n+]2C)c2ccccc2N1Cc1ccccc1 [Compound 23],3.8
541,505,CCCCC1=CC(=Cc2sc3cc(-c4c(OC)cccc4OC)ccc3[n+]2C)c2ccccc2N1Cc1ccccc1 [Compound 26],36
540,510,COc1cccc(OC)c1-c1ccc2c(c1)sc(C=C1C=CN(Cc3ccc(CN4CCN(C)CC4)cc3)c3ccccc31)[n+]2C [Compound 44],22
541,511,COc1cccc(OC)c1-c1ccc2c(c1)sc(C=C1C=CN(Cc3ccc(CN4CCOCC4)cc3)c3ccccc31)[n+]2C [Compound 45],13.2
542,520,COc1cccc(OC)c1-c1ccc2c(c1)sc(C=C1C=CN(Cc3ccc(C[N+](C)(C)CCC[N+](C)(C)C)cc3)c3ccccc31)[n+]2C [Compound 49],18
540,510,COc1cccc(OC)c1-c1ccc2c(c1)sc(C=C1C=CN(Cc3ccccc3)c3ccccc31)[n+]2C [Compound 53],60
541,513,COc1cccc(OC)c1-c1ccc2c(c1)sc(C=C1C=CN(Cc3ccncc3)c3ccccc31)[n+]2C [Compound 55],10.9
536,506,CCCCn1cc(N2C(N(CCC)CCCN(C)C)=CC(=Cc3sc4cc(-c5c(OC)cccc5OC)ccc4[n+]3C)c3ccccc32)nn1 [Compound 57],3.8
539,510,COc1cccc(OC)c1-c1ccc2c(c1)sc(C=C1C=CN(CCc3ccccc3)c3ccccc31)[n+]2C [Compound 62],48
523,498,CCCN(CCCN(C)C)C1=CC(=Cc2sc3cc(-c4c(C)cccc4C)ccc3[n+]2C)c2ccccc2N1c1ccccc1 [Compound 68],7
523,494,Cc1cccc(C)c1-c1ccc2c(c1)sc(C=C1C=C(N(C)CCCN(C)C)N(c3ccccc3)c3ccccc31)[n+]2C [Compound 69],3.2
530,513,CC(=O)Nc1ccccc1-c1ccc2c(c1)sc(C=C1C=CN(Cc3ccccc3)c3ccccc31)[n+]2C [Compound 94],2.1
555,527,C[n+]1c(C=C2C=CN(Cc3ccccc3)c3ccccc32)sc2cc(-c3cccs3)ccc21 [Compound 96],8
534,511,C[n+]1cccc(-c2ccc3c(c2)sc(C=C2C=CN(Cc4ccccc4)c4ccccc42)[n+]3C)c1 [Compound 99],1.3
